Experimental data from US20050239656A1, “Pyridine compounds or salts thereof and herbicides containing the same” (priority 2002, published 2005).

Key:
rice [1] = experiment: Test Example 1: foliage treatment, upland pot test; type: in vivo, Oryza sativa L.; conditions: crop, active ingredient 500 g/ha, observed 18th to 23rd day, 0 = non-treated, 100 = complete kill
Summary of the method: (§1)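 Crops and weeds were sown in upland soil pots and sprayed post-emergence at set leaf stages (soybean 0.1–0.4, wheat 1.3–2.4, rice 1.2–2.6, barnyardgrass 1.3–2.8). Formulated compound was applied in 500 L/ha water with 0.1% spreader. Growth control (0–100%) was rated visually 18–23 days later.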

soybean [2] = experiment: Test Example 2: soil surface treatment, upland pot test; type: in vivo, Glycine max Merr.; conditions: active ingredient 500 g/ha, observed 20th to 28th day
Summary of the method: (§2)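 Sowing, then next-day soil-surface spray of formulated test compound (fixed a.i. amount, 1,500 L/ha spray volume); visual evaluation of growth inhibition, 0–100%, three to four weeks (days 20–28) after application.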

redroot pigweed [3] = experiment: Test Example 1: foliage treatment, upland pot test; type: in vivo, Amaranthus retroflexus L.; conditions: active ingredient 500 g/ha, observed 18th to 23rd day, 0 = non-treated, 100 = complete kill
rice [4] = experiment: Test Example 2: soil surface treatment, upland pot test; type: in vivo, Oryza sativa L.; conditions: active ingredient 500 g/ha, observed 20th to 28th day
Summary of the method: as §2

corn [5] = experiment: Test Example 1: foliage treatment, upland pot test; type: in vivo, Zea mays L.; conditions: crop, active ingredient 500 g/ha, observed 18th to 23rd day, 0 = non-treated, 100 = complete kill
Summary of the method: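 Corn seeds were sown in upland field soil held in a 1/170,000 ha pot and grown to the 2.1 to 3.2 leaf stage. A wettable powder or emulsifiable concentrate of the test compound was diluted with water at 500 L/ha, given 0.1% (v/v) agricultural spreader, and sprayed onto the foliage with a small sprayer. Growth controlling degree (%) was scored visually 18th to 23rd days later, from 0 (non-treated) to 100 (complete kill).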

barnyardgrass [6] = experiment: Test Example 1: foliage treatment, upland pot test; type: in vivo, Echinochloa crus-galli L.; conditions: active ingredient 500 g/ha, observed 18th to 23rd day, 0 = non-treated, 100 = complete kill
Summary of the method: as §1

prickly sida [7] = experiment: Test Example 2: soil surface treatment, upland pot test; type: in vivo, Sida spinosa L.; conditions: active ingredient 500 g/ha, observed 20th to 28th day
Summary of the method: as §2

crabgrass [8] = experiment: Test Example 1: foliage treatment, upland pot test; type: in vivo, Digitaria sanguinalis L.; conditions: active ingredient 500 g/ha, observed 18th to 23rd day, 0 = non-treated, 100 = complete kill
barnyardgrass [9] = experiment: Test Example 2: soil surface treatment, upland pot test; type: in vivo, Echinochloa crus-galli L.; conditions: active ingredient 500 g/ha, observed 20th to 28th day
Summary of the method: as §2

redroot pigweed [10] = experiment: as above; type: in vivo, Amaranthus retroflexus L.; conditions: active ingredient 500 g/ha, observed 20th to 28th day
Summary of the method: as §2

corn [11] = experiment: as above; type: in vivo, Zea mays L.; conditions: active ingredient 500 g/ha, observed 20th to 28th day
Summary of the method: as §2

soybean [12] = experiment: Test Example 1: foliage treatment, upland pot test; type: in vivo, Glycine max Merr.; conditions: crop, active ingredient 500 g/ha, observed 18th to 23rd day, 0 = non-treated, 100 = complete kill
Summary of the method: as §1

rice (var. Nihonbare) = experiment: Test Example 3: paddy pot test, transplanted rice; type: in vivo, Oryza sativa L.; conditions: active ingredient 250 g/ha, applied 4th day after transplantation, visually observed 21st day after application, 0 = non-treated, 100 = complete kill
Summary of the method: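 Rice (var. Nihonbare) at 2 leaf stage transplanted 3 cm deep into puddled paddy soil under 3–4 cm flooding; on day 4 after transplanting, diluted wettable powder or emulsifiable concentrate applied by pipette under submerged conditions at a set active-ingredient dose. Growth scored visually 21 days after application, 0 (untreated) to 100 (complete kill) %.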

green foxtail [13] = experiment: Test Example 1: foliage treatment, upland pot test; type: in vivo, Setaria viridis L.; conditions: active ingredient 500 g/ha, observed 18th to 23rd day, 0 = non-treated, 100 = complete kill
prickly sida [14] = experiment: Test Example 1: foliage treatment, upland pot test; type: in vivo, Sida spinosa L.; conditions: active ingredient 500 g/ha, observed 18th to 23rd day, 0 = non-treated, 100 = complete kill
velvetleaf [15] = experiment: Test Example 2: soil surface treatment, upland pot test; type: in vivo, Abutilon theophrasti MEDIC.; conditions: active ingredient 500 g/ha, observed 20th to 28th day
Summary of the method: as §2

crabgrass [16] = experiment: as above; type: in vivo, Digitaria sanguinalis L.; conditions: active ingredient 500 g/ha, observed 20th to 28th day
Summary of the method: as §2

green foxtail [17] = experiment: as above; type: in vivo, Setaria viridis L.; conditions: active ingredient 500 g/ha, observed 20th to 28th day
Summary of the method: as §2

japanese bulrush = experiment: Test Example 3: paddy pot test, application under submerged conditions; type: in vivo, Scirpus juncoides; conditions: active ingredient 250 g/ha; submerged application at 0.5 leaf stage; visually observed 14 days after application; 0 = non-treated, 100 = complete kill
Summary of the method: (§3)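 Barnyardgrass and japanese bulrush sown in flooded paddy soil in greenhouse pots, japanese ribbon wapato tubers planted 1–2 days later; water depth kept at 3–4 cm. Diluted wettable powder or emulsifiable concentrate applied into water at 0.5-leaf or primary-leaf stage at set active-ingredient doses. Growth control scored visually at 14 days, 0 (untreated) to 100% (complete kill).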

velvetleaf [18] = experiment: Test Example 1: foliage treatment, upland pot test; type: in vivo, Abutilon theophrasti MEDIC.; conditions: active ingredient 500 g/ha, observed 18th to 23rd day, 0 = non-treated, 100 = complete kill
japanese ribbon wapato = experiment: Test Example 3: paddy pot test, application under submerged conditions; type: in vivo, Sagittaria pygniaea; conditions: active ingredient 250 g/ha; submerged application at primary leaf stage; visually observed 14 days after application; 0 = non-treated, 100 = complete kill
Summary of the method: as §3

barnyardgrass [19] = experiment: as above; type: in vivo, Echinochloa crus-galli L.; conditions: active ingredient 250 g/ha; submerged application at 0.5 leaf stage; visually observed 14 days after application; 0 = non-treated, 100 = complete kill
Summary of the method: as §3

SMILES	Growth controlling degree (%) Rice (rice [1]) [%]	Growth controlling degree (%) Soyabean (soybean [2]) [%]	Growth controlling degree (%) Redroot pigweed (redroot pigweed [3]) [%]	Growth controlling degree (%) Rice (rice [4]) [%]	Growth controlling degree (%) Corn (corn [5]) [%]	Growth controlling degree (%) Barnyardgrass (barnyardgrass [6]) [%]	Growth controlling degree (%) Prickly sida (prickly sida [7]) [%]	Growth controlling degree (%) Crabgrass (crabgrass [8]) [%]	Growth controlling degree (%) Barnyardgrass (barnyardgrass [9]) [%]	Growth controlling degree (%) Redroot pigweed (redroot pigweed [10]) [%]	Growth controlling degree (%) Corn (corn [11]) [%]	Growth controlling degree (%) Soybean (soybean [12]) [%]	Growth controlling degree (%) Rice (rice (var. Nihonbare)) [%]	Growth controlling degree (%) Green foxtail (green foxtail [13]) [%]	Growth controlling degree (%) Prickly sida (prickly sida [14]) [%]	Growth controlling degree (%) Velvetleaf (velvetleaf [15]) [%]	Growth controlling degree (%) Crabgrass (crabgrass [16]) [%]	Growth controlling degree (%) Green foxtail (green foxtail [17]) [%]	Growth controlling degree (%) Japanese bulrush (japanese bulrush) [%]	Growth controlling degree (%) Velvetleaf (velvetleaf [18]) [%]	other results
CC(C)C(c1cnccc1C(F)(F)F)N(C)C(=O)Cc1c(F)cccc1Cl (centres unmarked) [I-33]	30	0	60	10	0	20	80	80	100	80	30	40	10	70	70	90	100	90	85	80	Growth controlling degree (%) Japanese ribbon wapato (japanese ribbon wapato): 90%; Growth controlling degree (%) Barnyardgrass (barnyardgrass [19]): 100%
Cc1ccccc1CC(=O)N(C)C(c1cnccc1C(F)(F)F)C(C)C (centres unmarked) [I-36]	10	10	80	30	35	95	100	98	100	80	20	70	10	70	90	50	98	98	95	70	Growth controlling degree (%) Japanese ribbon wapato (japanese ribbon wapato): 90%; Growth controlling degree (%) Barnyardgrass (barnyardgrass [19]): 100%
COc1ccc(CC(=O)N(C)C(c2cnccc2C(F)(F)F)C(C)C)cc1 (centres unmarked) [I-38]	10	0	80	20	40	70	100	70	100	80	10	60	30	60	70	0	90	80	70	90	Growth controlling degree (%) Japanese ribbon wapato (japanese ribbon wapato): 85%; Growth controlling degree (%) Barnyardgrass (barnyardgrass [19]): 100%
CC(C)C(c1cnccc1C(F)(F)F)N(C)C(=O)Cc1cccc(C(F)(F)F)c1 (centres unmarked) [I-40]	50	30	80	20	90	40	100	95	95	90	50	60	0	70	80	70	100	100	50	90	Growth controlling degree (%) Japanese ribbon wapato (japanese ribbon wapato): 50%; Growth controlling degree (%) Barnyardgrass (barnyardgrass [19]): 100%
CC(C)C(c1cnccc1C(F)(F)F)N(C)C(=O)Cc1ccc(F)c(F)c1 (centres unmarked) [I-60]	50	10	60	20	70	60	98	80	98	80	10	35	30	70	70	70	100	98	70	90	Growth controlling degree (%) Japanese ribbon wapato (japanese ribbon wapato): 95%; Growth controlling degree (%) Barnyardgrass (barnyardgrass [19]): 100%
